From patent US9938261B2, “Heterocyclic compounds and methods of use thereof” (AMBIT BIOSCIENCES CORPORATION, priority 2011, dated 2018)
Like-named read-outs stand apart in the source and are kept apart here.

Legend:
FLT3 = target: T1, FLT3 (Homo sapiens, UniProt P36888); experiment: Competition binding assay, FLT3 Kd
T1 construct: made in house
T1 sequence (P36888 27-993): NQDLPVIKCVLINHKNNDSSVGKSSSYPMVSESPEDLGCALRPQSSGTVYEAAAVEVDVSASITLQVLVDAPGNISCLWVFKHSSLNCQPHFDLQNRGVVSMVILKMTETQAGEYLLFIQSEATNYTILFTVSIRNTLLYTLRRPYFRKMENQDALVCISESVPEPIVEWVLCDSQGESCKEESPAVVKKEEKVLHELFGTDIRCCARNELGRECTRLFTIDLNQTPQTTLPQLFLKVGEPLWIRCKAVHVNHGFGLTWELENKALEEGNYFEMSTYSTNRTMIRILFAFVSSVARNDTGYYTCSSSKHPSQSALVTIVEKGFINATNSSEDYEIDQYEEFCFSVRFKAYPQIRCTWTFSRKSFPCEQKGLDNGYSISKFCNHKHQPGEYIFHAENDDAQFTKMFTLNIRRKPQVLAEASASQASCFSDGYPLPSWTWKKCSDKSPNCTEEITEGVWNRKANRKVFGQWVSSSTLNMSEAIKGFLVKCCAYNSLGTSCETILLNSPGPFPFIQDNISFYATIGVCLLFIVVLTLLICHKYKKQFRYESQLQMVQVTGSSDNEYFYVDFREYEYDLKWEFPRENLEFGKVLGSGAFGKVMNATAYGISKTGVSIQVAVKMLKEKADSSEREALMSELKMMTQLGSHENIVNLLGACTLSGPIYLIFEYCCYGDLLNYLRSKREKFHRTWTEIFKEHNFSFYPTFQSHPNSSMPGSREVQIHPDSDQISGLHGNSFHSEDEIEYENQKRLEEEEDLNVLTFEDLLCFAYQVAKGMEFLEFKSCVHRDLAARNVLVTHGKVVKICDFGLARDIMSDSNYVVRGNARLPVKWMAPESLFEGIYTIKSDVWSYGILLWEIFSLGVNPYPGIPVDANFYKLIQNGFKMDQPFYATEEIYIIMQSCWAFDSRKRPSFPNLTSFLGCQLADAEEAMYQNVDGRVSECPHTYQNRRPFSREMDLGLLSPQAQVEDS
Summary of the method: (§1)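 Kinases, either T7 phage fusions or HEK-293-expressed and DNA-tagged, competed with test compounds for immobilized biotinylated affinity ligand on streptavidin beads in binding buffer (20% SeaBlock, 0.17×PBS, 0.05% Tween 20, 6 mM DTT). After 1 hour at room temperature, bead-bound kinase was eluted and quantified by qPCR; Kd from eleven-point threefold dilutions.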

KIT = target: T2, KIT (Homo sapiens, UniProt P10721); experiment: Competition binding assay, KIT Kd
T2 construct: made in house
T2 sequence (P10721 26-976): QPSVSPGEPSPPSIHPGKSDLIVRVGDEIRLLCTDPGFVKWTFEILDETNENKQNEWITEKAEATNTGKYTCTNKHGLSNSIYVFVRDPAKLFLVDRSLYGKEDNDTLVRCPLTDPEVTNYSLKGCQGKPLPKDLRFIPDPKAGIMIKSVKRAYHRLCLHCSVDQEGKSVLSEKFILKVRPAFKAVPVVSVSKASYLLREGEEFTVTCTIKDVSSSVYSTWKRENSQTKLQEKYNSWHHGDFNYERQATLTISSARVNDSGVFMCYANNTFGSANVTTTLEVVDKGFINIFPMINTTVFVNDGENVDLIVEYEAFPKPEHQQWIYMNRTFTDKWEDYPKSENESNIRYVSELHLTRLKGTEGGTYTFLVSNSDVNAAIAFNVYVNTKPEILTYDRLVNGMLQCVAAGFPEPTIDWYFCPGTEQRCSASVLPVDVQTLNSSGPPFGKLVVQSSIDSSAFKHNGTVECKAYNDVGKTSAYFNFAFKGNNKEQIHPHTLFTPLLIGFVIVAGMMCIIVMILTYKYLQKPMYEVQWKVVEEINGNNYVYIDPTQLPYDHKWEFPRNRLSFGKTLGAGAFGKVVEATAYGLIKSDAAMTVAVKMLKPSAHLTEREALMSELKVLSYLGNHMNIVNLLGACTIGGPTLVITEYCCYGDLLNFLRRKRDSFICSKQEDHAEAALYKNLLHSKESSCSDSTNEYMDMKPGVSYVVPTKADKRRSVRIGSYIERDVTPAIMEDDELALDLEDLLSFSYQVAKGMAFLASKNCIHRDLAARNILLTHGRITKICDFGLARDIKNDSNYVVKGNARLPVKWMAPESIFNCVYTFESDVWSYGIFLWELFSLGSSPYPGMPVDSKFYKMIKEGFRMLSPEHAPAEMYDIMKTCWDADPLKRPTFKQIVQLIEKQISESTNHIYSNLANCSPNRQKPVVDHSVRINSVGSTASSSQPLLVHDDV
Summary of the method: as §1

PDGFRβ = target: T3, PDGFRβ (Homo sapiens, UniProt P09619); experiment: Competition binding assay, PDGFRβ Kd
T3 construct: made in house
T3 sequence (P09619 33-1106): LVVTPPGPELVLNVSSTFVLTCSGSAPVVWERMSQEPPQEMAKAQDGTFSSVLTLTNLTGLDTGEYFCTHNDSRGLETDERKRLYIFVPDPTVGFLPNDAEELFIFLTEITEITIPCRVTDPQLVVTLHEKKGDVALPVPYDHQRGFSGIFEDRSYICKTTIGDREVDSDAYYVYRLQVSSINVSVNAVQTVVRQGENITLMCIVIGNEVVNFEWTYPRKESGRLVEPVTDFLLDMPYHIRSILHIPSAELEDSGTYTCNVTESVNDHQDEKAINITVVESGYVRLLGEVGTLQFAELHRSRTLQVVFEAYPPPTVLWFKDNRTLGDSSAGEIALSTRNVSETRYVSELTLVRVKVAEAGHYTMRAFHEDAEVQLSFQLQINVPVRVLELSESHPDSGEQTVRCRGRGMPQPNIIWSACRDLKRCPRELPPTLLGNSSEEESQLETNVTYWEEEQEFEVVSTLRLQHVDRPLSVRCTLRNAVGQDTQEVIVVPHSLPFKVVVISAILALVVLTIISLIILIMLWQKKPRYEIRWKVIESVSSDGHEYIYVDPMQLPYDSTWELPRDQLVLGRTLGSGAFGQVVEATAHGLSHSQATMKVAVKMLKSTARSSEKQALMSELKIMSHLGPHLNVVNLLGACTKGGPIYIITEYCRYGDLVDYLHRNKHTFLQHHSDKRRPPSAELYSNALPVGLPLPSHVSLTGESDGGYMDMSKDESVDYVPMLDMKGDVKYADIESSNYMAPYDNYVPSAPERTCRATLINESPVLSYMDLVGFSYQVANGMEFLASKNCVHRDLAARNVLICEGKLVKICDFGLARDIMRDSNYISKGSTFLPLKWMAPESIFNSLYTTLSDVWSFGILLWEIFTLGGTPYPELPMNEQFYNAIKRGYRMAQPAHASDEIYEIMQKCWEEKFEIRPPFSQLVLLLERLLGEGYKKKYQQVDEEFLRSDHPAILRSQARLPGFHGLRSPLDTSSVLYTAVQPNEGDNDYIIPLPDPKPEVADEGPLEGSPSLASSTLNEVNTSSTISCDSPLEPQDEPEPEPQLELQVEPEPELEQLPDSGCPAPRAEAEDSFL
Summary of the method: as §1

M-NFS-60 cells = experiment: M-NFS-60 cell proliferation assay (Alamar Blue); format: cell-based, mouse; conditions: read-out: CSF1R M-NFS-60 CTB:IC50
Summary of the method: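 Alamar Blue reduction (3 h; 560/590 nm) measured viability after 72 h, 37 °C treatment with nine half-log compound concentrations at 0.5% DMSO. Cells: M-CSF-dependent (20 ng/mL) murine M-NFS-60 in RPMI plus 10% FBS. IC50s, averaged from duplicates, reflect half-maximal inhibition of proliferation relative to control.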

[1] = target: kinase panel containing either 386 or 392 distinct kinases; experiment: Kinase selectivity score S10 from competition binding panel
Summary of the method: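 S10 is the number of kinases with percent-of-control under 10, divided by all distinct wild-type kinases tested, from a single 10 μM concentration. Binding measured by qPCR of kinase recovered from ligand-coated beads after 1 h equilibrium at room temperature; kinases were phage fusions or DNA-tagged HEK-293 products.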

CSF1R = CSF1R (Homo sapiens, UniProt P07333); experiment: Competition binding assay, CSF1R Kd; set-up: made in house
CSF1R, sequence (P07333 20-972): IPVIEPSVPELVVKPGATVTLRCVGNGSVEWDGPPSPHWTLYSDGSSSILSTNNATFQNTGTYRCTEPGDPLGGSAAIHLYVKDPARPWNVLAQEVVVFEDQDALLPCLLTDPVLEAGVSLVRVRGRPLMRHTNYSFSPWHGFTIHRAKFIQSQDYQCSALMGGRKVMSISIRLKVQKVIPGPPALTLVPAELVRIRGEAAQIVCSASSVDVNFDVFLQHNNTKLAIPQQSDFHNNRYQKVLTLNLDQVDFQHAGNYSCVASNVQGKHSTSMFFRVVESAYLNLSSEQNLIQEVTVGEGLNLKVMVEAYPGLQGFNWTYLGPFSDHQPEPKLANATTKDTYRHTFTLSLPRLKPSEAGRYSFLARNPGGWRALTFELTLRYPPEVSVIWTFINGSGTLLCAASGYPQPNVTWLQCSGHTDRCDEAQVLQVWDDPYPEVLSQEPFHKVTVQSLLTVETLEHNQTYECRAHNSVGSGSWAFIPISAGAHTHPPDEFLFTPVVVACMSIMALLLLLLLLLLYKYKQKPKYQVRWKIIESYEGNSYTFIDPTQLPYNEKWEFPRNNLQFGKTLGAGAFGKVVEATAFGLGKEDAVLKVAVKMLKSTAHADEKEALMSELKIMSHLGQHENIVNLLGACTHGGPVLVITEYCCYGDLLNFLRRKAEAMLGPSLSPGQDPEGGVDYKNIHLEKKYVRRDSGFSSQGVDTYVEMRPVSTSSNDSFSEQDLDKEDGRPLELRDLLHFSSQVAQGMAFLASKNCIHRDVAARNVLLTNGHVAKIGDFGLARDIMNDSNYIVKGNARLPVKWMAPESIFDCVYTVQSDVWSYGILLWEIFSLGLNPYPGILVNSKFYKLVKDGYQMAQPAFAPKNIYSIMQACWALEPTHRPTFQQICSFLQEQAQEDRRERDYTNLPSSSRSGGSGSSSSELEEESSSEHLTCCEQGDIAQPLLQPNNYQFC
Summary of the method: as §1

[2] = Mus musculus, 72 hours incubation, M-CSF 20 ng/mL
[3] = compounds at 10 μM, 386 or 392 distinct kinases
[4] = Mus musculus, M-NFS-60 cell proliferation
[5] = 10 μM, panel of 386 or 392 distinct kinases

Compound | Kd (FLT3) [nM] | Kd (KIT) [nM] | Kd (PDGFRβ) [nM] | Kinase specificity S(10) [1, 3] | Kd (CSF1R) [nM] | Kd (FLT3; competition binding) [nM] | Kd (KIT; competition binding) [nM] | Kd (PDGFRβ; competition binding) [nM] | Kinase specificity S(10) [1, 5] | Kd (CSF1R; competition binding) [nM] | IC50 (M-NFS-60 cells; [2]) [nM] | IC50 (M-NFS-60 cells; [4]) [nM] | IC50 (M-NFS-60 cells; 72 hours incubation, M-CSF 20 ng/mL) [nM]
O=C(O)c1cnc2c(c1)ncn2Cc1ccc2nc(N[C@@H]3CCCC[C@H]3O)sc2c1 [Example 81, 3-((2-(((1R,2R)-2-hydroxycyclohexyl)amino)benzo[d]thiazol-6-yl)methyl)-3H-imidazo[4,5-b]pyridine-6-carboxylic acid] | 1000 to 5000 | 100 to 500 | 50 to 500 | B (0.01<B≤0.02) | 20 to 50 | – | – | – | – | – | > 1500 | – | –
OC[C@H](Nc1nc2ccc(Cn3cnc4cccnc43)cc2s1)C1CCCCC1 [Example 64, (R)-2-((6-((3H-imidazo[4,5-b]pyridin-3-yl)methyl)benzo[d]thiazol-2-yl)amino)-2-cyclohexylethanol] | 200 to 1000 | ≤ 100 | ≤ 50 | C (C>0.02) | 5 to 20 | – | – | – | – | – | 50 to 400 | – | –
COc1ccn2c(Cc3ccc4nc(N[C@@H]5CCCC[C@H]5O)sc4c3)cnc2c1 [Example 44, (1R,2R)-2-((6-((7-methoxyimidazo[1,2-a]pyridin-3-yl)methyl)benzo[d]thiazol-2-yl)amino)cyclohexanol] | > 5000 | 500 to 2000 | 500 to 2000 | A (A≤0.01) | 5 to 20 | – | – | – | – | – | 50 to 400 | – | –
CS(=O)(=O)c1cnc2c(c1)ncn2Cc1ccc2nc(N[C@@H]3CCCC[C@H]3O)sc2c1 [Example 74, (1R,2R)-2-((6-((6-(methylsulfonyl)-3H-imidazo[4,5-b]pyridin-3-yl)methyl)benzo[d]thiazol-2-yl)amino)cyclohexanol] | ≤ 200 | 100 to 500 | 50 to 500 | B (0.01<B≤0.02) | 5 to 20 | – | – | – | – | – | 50 to 400 | – | –
either (1R,2R)-1-((6-((4-(1-methyl-1H-pyrazol-4-yl)-1H-imidazol-1-yl)methyl)benzo[d]thiazol-2-yl)amino)-2,3-dihydro-1H-inden-2-ol or (1R,2R)-1-((6-((5-(1-methyl-1H-pyrazol-4-yl)-1H-imidazol-1-yl)methyl)benzo[d]thiazol-2-yl)amino)-2,3-dihydro-1H-inden-2-ol [Example 83] | ≤ 200 | 500 to 2000 | 50 to 500 | A (A≤0.01) | ≤ 5 | – | – | – | – | – | – | – | 50 to 400
CNC(=O)c1cn(Cc2ccc3nc(N[C@@H]4CCCC[C@H]4O)sc3c2)cn1 [Example 37, 1-((2-(((1R,2R)-2-hydroxycyclohexyl)amino)benzo[d]thiazol-6-yl)methyl)-N-methyl-1H-imidazole-4-carboxamide] | > 5000 | > 2000 | > 2000 | A (A≤0.01) | > 50 | – | – | – | – | – | > 1500 | – | –
COc1cc2ncn(Cc3ccc4nc(NCC5CCCCC5)oc4c3)c2cc1OC [Example 35, N-(cyclohexylmethyl)-6-((5,6-dimethoxy-1H-benzo[d]imidazol-1-yl)methyl)benzo[d]oxazol-2-amine] | ≤ 200 | ≤ 100 | ≤ 50 | C (C>0.02) | ≤ 5 | – | – | – | – | – | 50 to 400 | – | –
COc1cc2ncn(Cc3ccc4nc(N[C@@H]5CCCC[C@H]5O)oc4c3)c2cc1OC [Example 34, (1R,2R)-2-((6-((5,6-dimethoxy-1H-benzo[d]imidazol-1-yl)methyl)benzo[d]oxazol-2-yl)amino)cyclohexanol] | ≤ 200 | 100 to 500 | 50 to 500 | C (C>0.02) | 5 to 20 | – | – | – | – | – | 50 to 400 | – | –
COc1cc2c(cc1Br)ncn2Cc1ccc2nc(N[C@@H]3CCCC[C@H]3O)sc2c1 [Example 41, (1R,2R)-2-((6-((5-bromo-6-methoxy-1H-benzo[d]imidazol-1-yl)methyl)benzo[d]thiazol-2-yl)amino)cyclohexanol] | 200 to 1000 | 100 to 500 | 500 to 2000 | A (A≤0.01) | 5 to 20 | – | – | – | – | – | 50 to 400 | – | –

Further lines, with some results ahead:

Kd (FLT3) [nM] | Kd (KIT) [nM] | Kd (PDGFRβ) [nM] | Kinase specificity S(10) [1, 3] | Kd (CSF1R) [nM] | Kd (FLT3; competition binding) [nM] | Kd (KIT; competition binding) [nM] | Kd (PDGFRβ; competition binding) [nM] | Kinase specificity S(10) [1, 5] | Kd (CSF1R; competition binding) [nM] | Compound | IC50 (M-NFS-60 cells; [2]) [nM] | IC50 (M-NFS-60 cells; [4]) [nM] | IC50 (M-NFS-60 cells; 72 hours incubation, M-CSF 20 ng/mL) [nM]
200 to 1000 | 500 to 2000 | 50 to 500 | B (0.01<B≤0.02) | 20 to 50 | – | – | – | – | – | CC(=O)Nc1cn(Cc2ccc3nc(N[C@@H]4CCCC[C@H]4O)sc3c2)cn1 [Example 101, N-(1-((2-(((1R,2R)-2-hydroxycyclohexyl)amino)benzo[d]thiazol-6-yl)methyl)-1H-imidazol-4-yl)acetamide] | 50 to 400 | – | –
– | – | – | – | – | ≤ 200 | ≤ 100 | ≤ 50 | B (0.01<B≤0.02) | 5 to 20 | C=Cc1cc(F)c2c(c1)ncn2Cc1ccc2nc(N[C@@H]3CCCC[C@H]3O)sc2c1 [Example 207, (1R,2R)-2-((6-((7-fluoro-5-vinyl-1H-benzo[d]imidazol-1-yl)methyl)benzo[d]thiazol-2-yl)amino)cyclohexanol] | – | ≤ 50 | –
– | – | – | – | – | 200 to 1000 | 100 to 500 | 50 to 500 | A (A≤0.01) | 5 to 20 | N#Cc1cc(F)c2c(c1)ncn2Cc1ccc2nc(N[C@@H]3CCCC[C@H]3O)sc2c1 [Example 206, 7-fluoro-1-((2-(((1R,2R)-2-hydroxycyclohexyl)amino)benzo[d]thiazol-6-yl)methyl)-1H-benzo[d]imidazole-5-carbonitrile] | – | 50 to 400 | –
– | – | – | – | – | ≤ 200 | ≤ 100 | ≤ 50 | C (C>0.02) | ≤ 5 | O[C@@H]1CCCC[C@H]1Nc1nc2ccc(Cn3cnc4cc(-c5cc[nH]n5)ccc43)cc2s1 [Example 211, (1R,2R)-2-((6-((5-(1H-pyrazol-3-yl)-1H-benzo[d]imidazol-1-yl)methyl)benzo[d]thiazol-2-yl)amino)cyclohexanol] | – | ≤ 50 | –
– | – | – | – | – | 1000 to 5000 | 500 to 2000 | 500 to 2000 | A (A≤0.01) | 20 to 50 | CC(O)c1ccn2c(Cc3ccc4nc(N[C@@H]5CCCC[C@H]5O)sc4c3)cnc2c1 (stereo partly drawn) [Example 201, (1R,2R)-2-((6-((7-(1-hydroxyethyl)imidazo[1,2-a]pyridin-3-yl)methyl)benzo[d]thiazol-2-yl)amino)cyclohexanol] | – | > 1500 | –
– | – | – | – | – | 200 to 1000 | ≤ 100 | 50 to 500 | A (A≤0.01) | 5 to 20 | O[C@@H]1CCCC[C@H]1Nc1nc2ccc(Cn3cnc4cc(Br)cc(F)c43)cc2s1 [Example 203, (1R,2R)-2-((6-((5-bromo-7-fluoro-1H-benzo[d]imidazol-1-yl)methyl)benzo[d]thiazol-2-yl)amino)cyclohexanol] | – | 50 to 400 | –
200 to 1000 | ≤ 100 | ≤ 50 | B (0.01<B≤0.02) | 5 to 20 | – | – | – | – | – | O[C@@H]1CCCC[C@H]1Nc1nc2ccc(Cn3cnc4cc(N5CCOCC5)cnc43)cc2s1 [Example 97, (1R,2R)-2-((6-((6-morpholino-3H-imidazo[4,5-b]pyridin-3-yl)methyl)benzo[d]thiazol-2-yl)amino)cyclohexanol] | ≤ 50 | – | –
200 to 1000 | ≤ 100 | ≤ 50 | B (0.01<B≤0.02) | 5 to 20 | – | – | – | – | – | C=Cc1cnc2c(c1)ncn2Cc1ccc2nc(N[C@@H]3CCCC[C@H]3O)sc2c1 [Example 98, (1R,2R)-2-((6-((6-vinyl-3H-imidazo[4,5-b]pyridin-3-yl)methyl)benzo[d]thiazol-2-yl)amino)cyclohexanol] | ≤ 50 | – | –
